# In patent publication US8314098B2, “Pyrazolo-pyrimidine compounds” (Ajinomoto Co., Inc., priority 2008, dated 2012):
# Tested on: IL-12p70 (the complex of IL-12p35 and p40)
# Assay: IL-12p70 production inhibition in macrophages derived from mouse abdomen (IFN-γ/SAC stimulation, ELISA)
# Type: cell-based
# Settings: Macrophage; mouse (Balb/c) abdominal macrophages, 100 ng/mL mouse IFN-γ + 0.05% SAC, overnight; TFA salts tested where prepared as such; read-out: IL-12p70-Inhibitory Activity IC50
# Procedure: One milliliter each of a 3% (w/v) thioglycolate solution was intraperitoneally administered to mice (female Balb/c mice), the abdominal cells of each mouse were recovered after 5 or 6 days from the administration of the thioglycolate solution and the adhesive cells were collected and used in the exaluation procedures. To a culture medium containing such adhesive cells, there were added 100 ng/mL of mouse interferon-γ and a 0.05% (v/v) liquid containing killed cells derived from Staphylococcus aureus Cowan I strain (SAC) and a candidate compound and then the mixture was cultivated overnight. After the completion of the cultivation, the survival ratios were determined, there were quantitatively determined the quantities of IL-12p70 (the complex of IL-12p35 and p40) and IL-12p40 or TNF-α according to the ELISA assays while making use of the recovered supernatant of the culture medium and the 50% production-inhibitory concentration (IC50) was calculated for each case (see Table 1 and Tables 1-9 for IL-12p70 and TNF-α and Tables 1 to 10 for IL-12p40).
row,IC50,SMILES
1,7.3 nM,"Cc1cccc(/C=N/Nc2cc(N3CCOCC3)n3nc(-c4ccc(C)nc4)cc3n2)c1 [Compound 110, N-(3-methyl-benzylidene)-N′-[2-(6-methyl-pyridin-3-yl)-7-morpholin-4-yl-pyrazolo[1,5-a]pyrimidin-5-yl]-hydrazine]"
2,17 nM,"Cc1cccc(/C=N/Nc2cc(N3CCOCC3)n3nc(-c4ccco4)cc3n2)c1 [Compound 33, N-(2-furan-2-yl-7-morpholin-4-yl-pyrazolo[1,5-a]-pyrimidin-5-yl)-N′-(3-methyl-benzylidene)-hydrazine]"
3,110 nM,"Cc1cccc(/C=N/Nc2cc(N3CCOCC3)n3nc(OCCOc4ccccc4)cc3n2)c1 [Compound 37, N-(3-methyl-benzylidene)-N′-[7-morpholin-4-yl-2-(2-phenoxy-ethoxy)-pyrazolo[1,5-a]pyrimidin-5-yl]-hydrazine]"
4,180 nM,"COc1ccc(/C=N/Nc2cc(N3CCOCC3)n3nc(-c4ccccc4)cc3n2)cc1 [Compound 30, N-(4-methoxy-benzylidene)-N′-(7-morpholin-4-yl-2-phenyl-pyrazolo[1,5-a]pyrimidin-5-yl)-hydrazine]"
5,320 nM,"CC(/C=N/Nc1cc(N2CCOCC2)n2nc(-c3ccccc3)cc2n1)=C\c1ccccc1 [Compound 63, N-(2-methyl-3-phenyl-alkylidene)-N′-(7-morpholin-4-yl-2-phenyl-pyrazolo[1,5-a]pyrimidin-5-yl)-hydrazine]"
6,170 nM,"Cc1[nH]c2ccc(/C=N/Nc3cc(N4CCOCC4)n4nc(-c5cnccn5)cc4n3)cc2c1C [Compound 107, N-(2,3-dimethyl-1H-indol-5-yl-methylidene)-N-(7-morpholin-4-yl-2-pyrazin-2-yl-pyrazolo[1,5-a]pyrimidin-5-yl)-hydrazine]"
7,98 nM,"C(=N\Nc1cc(N2CCOCC2)n2nc(-c3ccncc3)cc2n1)/c1ccc2c(c1)OCCO2 [Compound 113, N-(2,3-dihydro-benzo[1,4]dioxin-6-yl-methylidene)-N′-(7-morpholin-4-yl-2-pyridin-4-yl-pyrazolo[1,5-a]pyrimidin-5-yl)-hydrazine]"
8,250 nM,"OB(O)c1cccc(/C=N/Nc2cc(N3CCOCC3)n3nc(-c4ccccc4)cc3n2)c1 [Compound 139, N-(3-boronyl-benzylidene)-N-(7-morpholin-4-yl-2-phenyl-pyrazolo[1,5-a]pyrimidin-5-yl)-hydrazine]"
9,160 nM,"C(=N\Nc1cc(N2CCOCC2)n2nc(-c3cccnc3)cc2n1)/c1ccc2[nH]ccc2c1 [Compound 103, N-(1H-indol-5-yl-methylidene)-N-(7-morpholin-4-yl-2-pyridin-3-yl-pyrazolo[1,5-a]pyrimidin-5-yl)-hydrazine]"
10,190 nM,"C(=N\Nc1cc(N2CCOCC2)n2nc(-c3ccccc3)cc2n1)/c1cccc2[nH]ccc12 [Compound 72, N-(1H-indol-4-yl-methylidene)-N′-(7-morpholin-4-yl-2-phenyl-pyrazolo[1,5-a]pyrimidin-5-yl)-hydrazine]"
11,160 nM,"COc1ccccc1/C=N/Nc1cc(N2CCOCC2)n2nc(-c3ccccc3)cc2n1 [Compound 28, N-(2-methoxy-benzylidene)-N′-(7-morpholin-4-yl-2-phenyl-pyrazolo[1,5-a]pyrimidin-5-yl)-hydrazine]"
12,96 nM,"CC(=O)N1CCC(c2cc3nc(N/N=C/c4cccc(C)c4)cc(N4CCOCC4)n3n2)CC1 [Compound 133, N-[2-(1-acetyl-piperidin-4-yl)-7-morpholin-4-yl-pyrazolo-[1,5-a]pyrimidin-5-yl]-N′-(3-methyl-benzylidene)-hydrazine]"
13,440 nM,"Cc1[nH]c2ccccc2c1/C=N/Nc1cc(N2CCOCC2)n2nc(-c3ccccc3)cc2n1 [Compound 78, N-(2-methyl-1H-indol-3-yl-methylidene)-N′-(7-morpholin-4-yl-2-phenyl-pyrazolo[1,5-a]pyrimidin-5-yl)-hydrazine]"
14,55 nM,CCc1cccc(/C=N/Nc2cc(N3CCOCC3)n3nc(-c4cccnc4)cc3n2)c1 [Compound 115]
15,290 nM,"Cc1nc2sccn2c1/C=N/Nc1cc(N2CCOCC2)n2nc(-c3ccccc3)cc2n1 [Compound 75, N-(6-methy-imidazo[2,1-b]thiazole-5-methylidene)-N′-(7-morpholin-4-yl-2-phenyl-pyrazolo[1,5-a]pyrimidin-5-yl)-hydrazine]"
16,330 nM,"CN(Cc1ccccc1)Nc1cc(N2CCOCC2)n2nc(-c3ccccc3)cc2n1 [Compound 66, N-benzyl-N-methyl-N′-(7-morpholin-4-yl-2-phenyl-pyrazolo[1,5-a]pyrimidin-5-yl)-hydrazine]"

row,IC50,SMILES
1,370 nM,"C(=N\Nc1cc(N2CCOCC2)n2nc(-c3ccccc3)cc2n1)/c1cccs1 [Compound 61, N-(7-morpholin-4-yl-2-phenyl-pyrazolo[1,5-a]pyrimidin-5-yl)-N′-(thiophen-2-yl-methylidene)-hydrazine]"
2,380 nM,"C(=N\Nc1cc(N2CCOCC2)n2nc(N3CCCCC3)cc2n1)/c1c[nH]c2ccccc12 [Compound 101, N-(1H-indol-3-yl-methylidene)-N-(7-morpholin-4-yl-2-piperidin-1-yl-pyrazolo[1,5-a]pyrimidin-5-yl)-hydrazine]"
3,37 nM,"Cc1ccc(-c2cc3nc(N/N=C/c4coc5ccccc45)cc(N4CCOCC4)n3n2)cn1 [Compound 111, N-benzofuran-3-yl-methylidene-N′-[2-(6-methyl-pyridin-3-0)-7-morpholin-4-yl-pyrazolo[1,5-a]pyrimidin-5-yl]-hydrazine]"
4,7.5 nM,"Cc1ccc(-c2cc3nc(N/N=C/c4c[nH]c5ccccc45)cc(N4CCOCC4)n3n2)cn1 [Compound 112, N-(1H-indol-3-yl-methylidene)-N′-[2-(6-methyl-pyridin-3-yl)-7-morpholin-4-yl-pyrazolo[1,5-a]pyrimidin-5-yl]-hydrazine]"
5,360 nM,"Cc1cccc(/C=N/Nc2cc(N3CCOCC3)n3nc(N4CCCCC4)cc3n2)c1 [Compound 100, N-(3-methyl-benzylidene)-N-(7-morpholin-4-yl-2-piperidin-1-yl-pyrazolo[1,5-a]pyrimidin-5-yl)-hydrazine]"
6,100 nM,"Cc1cccc(/C=N/Nc2cc(N3CCOCC3)n3nc(C4CCN(C(=O)OCc5ccccc5)CC4)cc3n2)c1 [Compound 131, N-[2-(1-benzyloxy-carbonyl-piperidin-4-yl)-7-morpholin-4-yl-pyrazolo[1,5-a]pyrimidin-5-yl]-N′-(3-methyl-benzylidene)-hydrazine]"
7,130 nM,"Cc1cccc(/C=N/Nc2cc(N3CCOCC3)n3nc(C(=O)N(C)c4ccncc4)cc3n2)c1 [Compound 135, 5-[N-(3-methyl-benzylidene)-hydrazino]-7-morpholin-4-yl-pyrazolo[1,5-a]pyrimidine-2-carboxylic acid methyl-pyridin-4-yl-amide]"
8,470 nM,"Cc1cccc(/C=N/Nc2cc(N3CCOCC3)n3nc(C4CCNCC4)cc3n2)c1 [Compound 132, N-(3-methyl-benzylidene)-N′-(7-morpholin-4-yl-2-piperidin-4-yl-pyrazolo[1,5-a]pyrimidin-5-yl)-hydrazine]"
9,6.5 nM,"C(=N\Nc1cc(N2CCOCC2)n2nc(-c3cnccn3)cc2n1)/c1c[nH]c2ccccc12 [Compound 93, N-(1H-indol-3-yl-methylidene)-N′-(7-morpholin-4-yl-2-pyrazin-2-yl-pyrazolo[1,5-a]pyrimidin-5-yl)-hydrazine]"
10,40 nM,"C(=N\Nc1cc(N2CCOCC2)n2nc(-c3ccncn3)cc2n1)/c1c[nH]c2ccccc12 [Compound 120, N-(1H-indol-3-yl-methylidene)-N-(7-morpholin-4-yl-2-pyrimidin-4-yl-pyrazolo[1,5-a]pyrimidin-5-yl)-hydrazine]"
11,20 nM,"Cc1cccc(/C=N/Nc2cc(N3CCOCC3)n3nc(-c4cncnc4)cc3n2)c1 [Compound 124, N-(3-methyl-benzylidene)-N′-(7-morpholin-4-yl-2-pyrimidin-5-yl-pyrazolo[1,5-a]pyrimidin-5-yl)-hydrazine]"
12,16 nM,"Cc1cc(-c2cc3nc(N/N=C/c4c[nH]c5ccccc45)cc(N4CCOCC4)n3n2)no1 [Compound 99, N-(1H-indol-3-yl-methylidene)-N′-[2-(5-methylisoxazol-3-yl)-7-morpholin-4-yl-pyrazolo[1,5-a]pyrimidin-5-yl]-hydrazine]"
13,44 nM,"COc1ccc(/C=N/Nc2cc(N3CCOCC3)n3nc(-c4ccncc4)cc3n2)cc1C [Compound 92, N-(4-methoxy-3-methyl-benzylidene)-N′-(7-morpholin-4-yl-2-pyridin-4-yl-pyrazolo[1,5-a]pyrimidin-5-yl)-hydrazine]"
14,89 nM,"Cc1[nH]c2ccc(/C=N/Nc3cc(N4CCOCC4)n4nc(-c5cccnc5)cc4n3)cc2c1C [Compound 105, N-(2,3-dimethyl-1H-indol-5-yl-methylidene)-N-(7-morpholin-4-yl-2-pyridin-3-yl-pyrazolo[1,5-a]pyrimidin-5-yl)-hydrazine]"
15,26 nM,"Cc1cccc(/C=N/Nc2cc(N3CCOCC3)n3nc(-c4cc(C)on4)cc3n2)c1 [Compound 98, N-(3-methyl-benzylidene)-N′-[2-(5-methylisoxazol-3-yl)-7-morpholin-4-yl-pyrazolo[1,5-a]pyrimidin-5-yl]-hydrazine]"
16,130 nM,"Cc1cccc(/C=N/Nc2cc(N3CCOCC3)n3nc(OCc4ccccc4)cc3n2)c1 [Compound 134, N-(2-benzyloxy-7-morpholin-4-yl-pyrazolo[1,5-a]pyrimidin-5-yl)-N′-(3-methyl-benzylidene)-hydrazine]"
